From patent US4877893A, “Process for the preparation of 2-(O-alkyl)-2-thio-1,3,2-oxathiophospholanes” (priority 1987, dated 1989)

Columns and labels:
Assay in all cases: Fungicidal effect on infected agar nutrient media, colony diameter
Assay type in all cases: cell-based
Penicillium cyclopium = conditions: 7th day after treatment, untreated 26.5
Experimental: (§1) Agar nutrient media (Diameter 70 MM, thickness 10 mm) infected by Sclerotonia sclerotinia suspension are treated with 20 EC formulations prepared according to Example 27 and comprising 1, 10, 100 and 1000 ppm, respectively of the active ingredient of the Formula I. The fungicidal effect of the compositions is evaluated on the 3rd day after treatment by measuring the diameter of the Fungi colonies.
The series of measureents described in Example 35 is carried out except that the agar nutrient media are infected by a Penicillium cyclopium Fungi strain and the test is evaluated on the 7th day after treatment.

Sclerotinia sclerotinia = conditions: 3rd day after treatment, untreated control 41.7
Experimental: as §1

Alternaria tenuis = conditions: 5th day after treatment, untreated control 36.8
Experimental: as §1
The series of measurements according to Example 35 is carried out except that the agar nutrient media are infected by Alternaria Tenius and evaluation is accomplished on the 5th day after treatment.

Row | Structure (SMILES) | Diameter of colony (mm) (Penicillium cyclopium; 1 ppm) | Diameter of colony (mm) (Penicillium cyclopium; 10 ppm) | Diameter of colony (mm) (Penicillium cyclopium; 100 ppm) | Diameter of colony (mm) (Penicillium cyclopium; 1000 ppm) | Diameter of colony (mm) (Sclerotinia sclerotinia; 1 ppm) | Diameter of colony (mm) (Sclerotinia sclerotinia; 10 ppm) | Diameter of colony (mm) (Sclerotinia sclerotinia; 100 ppm) | Diameter of colony (mm) (Sclerotinia sclerotinia; 1000 ppm) | Diameter of colony (mm) (Alternaria tenuis; 1 ppm) | Diameter of colony (mm) (Alternaria tenuis; 10 ppm) | Diameter of colony (mm) (Alternaria tenuis; 100 ppm) | Diameter of colony (mm) (Alternaria tenuis; 1000 ppm)
1 | CC(Cl)C(C)OP1(=S)OCCS1 (stereo not drawn) [Compound 28] | 18.2 mm | 14.7 mm | 5.7 mm | 0 mm | 33.6 mm | 27.4 mm | 0 mm | 0 mm | 34.2 mm | 22.4 mm | 4.8 mm | 0 mm
2 | CC(C)CCOP1(=S)OCCS1 (stereo not drawn) [Compound 67] | 25.1 mm | 19.3 mm | 7.0 mm | 0 mm | 36.3 mm | 29.6 mm | 3.6 mm | 0 mm | 35.4 mm | 23.8 mm | 5.3 mm | 0 mm
3 | CC(I)COP1(=S)OC(C)CS1 (stereo not drawn) [Compound 24] | 24.2 mm | 15.0 mm | 5.9 mm | 0 mm | 38.1 mm | 29.0 mm | 3.2 mm | 0 mm | 34.8 mm | 25.5 mm | 6.1 mm | 0 mm
4 | CC(Br)C(C)OP1(=S)OCCS1 (stereo not drawn) [Compound 29] | 25.0 mm | 19.2 mm | 8.0 mm | 0 mm | 31.9 mm | 25.2 mm | 1.2 mm | 0 mm | 33.2 mm | 23.6 mm | 6.5 mm | 0 mm
5 | CC1COP(=S)(OCCBr)S1 (stereo not drawn) [Compound 8] | 20.0 mm | 18.3 mm | 7.9 mm | 0 mm | 37.6 mm | 29.9 mm | 1.0 mm | 0 mm | 30.1 mm | 26.1 mm | 6.4 mm | 0 mm
6 | CC(Cl)C(C)OP1(=S)OC(C)C(C)S1 (stereo not drawn) [Compound 43, 2-(0-1',2'-dimethyl-2'-chloroethyl)-2-thio-4,5-dimethyl-1,3,2-oxathiophospholane] | 25.2 mm | 18.4 mm | 6.3 mm | 0 mm | 37.6 mm | 28.2 mm | 2.4 mm | 0 mm | 32.4 mm | 23.3 mm | 6.2 mm | 0 mm
7 | CC(Cl)COP1(=S)OC(C)CS1 (stereo not drawn) [Compound 22, 2-(0-2'-methyl-2'-chloroethyl)-2-thio-5-methyl-1,3,2-oxathiophospholane] | 24.6 mm | 16.2 mm | 6.7 mm | 0 mm | 37.8 mm | 30.1 mm | 2.9 mm | 0 mm | 34.4 mm | 26.1 mm | 8.7 mm | 0 mm
8 | CC(I)C(C)OP1(=S)OC(C)C(C)S1 (stereo not drawn) [Compound 45] | 24.2 mm | 15.5 mm | 6.0 mm | 0 mm | 39.2 mm | 30.0 mm | 1.6 mm | 0 mm | 34.0 mm | 20.4 mm | 5.7 mm | 0 mm
9 | CC(Cl)COP1(=S)OCCS1 (stereo not drawn) [Compound 13, 2-(0-2'-methyl-2'-chloroethyl)-2-thio-1,3,2-oxathiophospholane] | 24.5 mm | 19.2 mm | 7.5 mm | 0 mm | 33.9 mm | 32.1 mm | 1.7 mm | 0 mm | 32.2 mm | 25.8 mm | 5.1 mm | 0 mm
10 | CC(Br)C(C)OP1(=S)OC(C)C(C)S1 (stereo not drawn) [Compound 44] | 17.9 mm | 17.1 mm | 5.1 mm | 0 mm | 35.4 mm | 28.1 mm | 4.0 mm | 0 mm | 33.5 mm | 26.2 mm | 7.0 mm | 0 mm
11 | CCCCOP1(=S)OC(C)CS1 (stereo not drawn) [Compound 60, 2-(0-n-butyl)-2-thio-5-methyl-1,3,2-oxathiophospholane] | 23.6 mm | 19.9 mm | 8.2 mm | 0 mm | 33.7 mm | 30.0 mm | 3.8 mm | 0 mm | 33.3 mm | 25.5 mm | 6.8 mm | 0 mm
12 | CC1COP(=S)(OC(C)C(C)Br)S1 (stereo not drawn) [Compound 32] | 19.4 mm | 16.7 mm | 7.2 mm | 0 mm | 38.9 mm | 30.0 mm | 3.2 mm | 0 mm | 31.2 mm | 27.4 mm | 7.2 mm | 0 mm
13 | CC1COP(=S)(OCCCl)S1 (stereo not drawn) [Compound 7] | 25.4 mm | 16.7 mm | 8.8 mm | 0 mm | 38.1 mm | 31.2 mm | 0 mm | 0 mm | 34.7 mm | 25.5 mm | 5.9 mm | 0 mm
